Experimental data as given in ChEMBL document CHEMBL1275495, “Clinical isolates of Aspergillus species remain fully susceptible to voriconazole in the post-voriconazole era” (2008).
Converted amounts (≈) assume the structure as drawn.

How the values were obtained:
Assay type in all cases: functional
[1] = test system: Aspergillus flavus; experiment: Antifungal activity against Aspergillus flavus clinical isolate obtained from invasive aspergillosis patient after 48 hrs by CLSI method
[2] = test system: Aspergillus niger; experiment: Antifungal activity against Aspergillus niger clinical isolate obtained from invasive aspergillosis patient after 48 hrs by CLSI method
[3] = test system: Aspergillus sp.; experiment: Antifungal activity against Aspergillus sp. selected after drug exposure after 48 hrs by CLSI method
[4] = test system: Aspergillus; experiment: Antifungal activity against Aspergillus species after 48 hrs by CLSI method
[5] = test system: Aspergillus terreus; experiment: Antifungal activity against Aspergillus terreus clinical isolate obtained from invasive aspergillosis patient after 48 hrs by CLSI method
[6] = test system: Aspergillus fumigatus; experiment: Antifungal activity against Aspergillus fumigatus clinical isolate obtained from invasive aspergillosis patient after 48 hrs by CLSI method
[7] = test system: Aspergillus sp.; experiment: Antifungal activity against Aspergillus sp. clinical isolate obtained from invasive aspergillosis patient selected after drug exposure after 48 hrs by CLSI method
[8] = test system: Aspergillus sp.; experiment: Antifungal activity against Aspergillus sp. clinical isolate obtained from invasive aspergillosis patient after 48 hrs by CLSI method

SMILES: C[C@@H](c1ncncc1F)[C@](O)(Cn1cncn1)c1ccc(F)cc1F [VORICONAZOLE]
- Activity [1]: 0.76 µg/mL
- Activity [2]: 0.76 µg/mL
- MIC [3]: 0.4 µg/mL (≈ 1.15 µM)
- MIC50 [3]: 0.25 µg/mL (≈ 0.716 µM)
- MIC90 [3]: 0.5 µg/mL (≈ 1.43 µM)
- MIC [4]: 0.39 µg/mL (≈ 1.12 µM)
- MIC50 [4]: 0.25 µg/mL (≈ 0.716 µM)
- MIC90 [4]: 0.5 µg/mL (≈ 1.43 µM)
- Activity [5]: 0.76 µg/mL
- Activity [6]: 0.46 µg/mL
- MIC [7]: 0.61 µg/mL (≈ 1.75 µM)
- MIC50 [7]: 0.5 µg/mL (≈ 1.43 µM)
- MIC90 [7]: 1 µg/mL (≈ 2.86 µM)
- MIC [8]: 0.57 µg/mL (≈ 1.63 µM)
- MIC50 [8]: 0.5 µg/mL (≈ 1.43 µM)
- MIC90 [8]: 1 µg/mL (≈ 2.86 µM)
